Values joined by “and” are separate entries in the source; they are usually repeats but may differ in a detail not shown here. Identical values can stand only once.
How the values were obtained:
[1] = target: T1, Arabidopsis HPPD variant M335H, P336G (Arabidopsis thaliana, UniProt P93836, M335H/P336G); test: HPPD activity assay, in vitro characterization of HPPD mutants; assay type: biochemical; conditions: normalized to wildtype
T1 construct: His6 (N); made in house; host or cells: E. coli BL21 (DE3)
Protocol: (§1) HPPD produces homogentisic acid and CO2 from 4-hydroxyphenylpyruvate (4-HPP) and O2. The activity assay for HPPD is based on the analysis of homogentisic acid by reversed phase HPLC.
(§2) The assay mixture can contain 150 mM potassium phosphate buffer pH 7.0, 50 mM L-ascorbic acid, 100 μM Catalase (Sigma-Aldrich), 1 μM FeSO4 and 0.2 units of purified HPPD enzyme in a total volume of 505 μl. 1 unit is defined as the amount of enzyme that is required to produce 1 nmol of HGA per minute at 20° C.
(§3) After a preincubation of 30 min the reaction is started by adding 4-HPP to a final concentration of 0.05 mM. The reaction is allowed to proceed for 45 min at room temperature. The reaction is stopped by the addition of 50 μl of 4.5 M phosphoric acid. The sample is filtered using a […] pore size PVDF filtration device.
(§4) 5 μl of the cleared sample is analyzed on an UPLC HSS T3 column (particle size 1.8 μm, dimensions 2,1×50 mm; Waters) by isocratic elution using 90% 20 mM NaH2PO4 pH 2.2, 10% methanol (v/v).
(§5) HGA is detected electrochemically at 750 mV (mode: DC; polarity: positive) and quantified by integrating peak areas (Empower software; Waters).
(§6) Inhibitors are dissolved in DMSO (dimethylsulfoxide) to a concentration of 0.5 mM. From this stock solution serial five-fold dilutions are prepared in DMSO, which are used in the assay. The respective inhibitor solution accounts for 1% of the assay volume. […] Activities are normalized by setting the uninhibited enzyme activity to 100%. IC50 values are calculated using non-linear regression.
(§7) Purified, mutant HPPD enzymes are obtained by the methods described above. Dose response and kinetic measurements are carried out using the described HPPD activity assay. Apparent michaelis constants (Km) and maximal reaction velocities (Vmax) are calculated by non-linear regression with the software GraphPad Prism 5 (GraphPad Software, La Jolla, USA) using a substrate inhibition model. […] Weighted means (by standard error) of Km and IC50 values are calculated from at least three independent experiments.
(§8) Field performance of the optimized HPPD enzyme, which is used as a herbicide tolerance trait may depend not only on its lack of sensitivity towards HPPD inhibiting herbicides but also on its activity. To assess the potential performance of a herbicide tolerance trait a tolerance index (TI) is calculated using the following formula: […]

[2] = target: T2, Hordeum HPPD variant L320H (Hordeum vulgare, UniProt O48604, A164G/L320H/R146V/R147D/R148G); test: as above; assay type: biochemical; conditions: normalized to wild-type
T2 construct: His (N); made in house; host or cells: E. coli BL21 (DE3)
Protocol: as §1, §2, §3, §4, §5, §6, §7, §8

[3] = target: T3, Hordeum HPPD variant L353M, P321R, L320N (Hordeum vulgare, UniProt O48604, L320N/L353M/P321R); test: as above; assay type: biochemical; conditions: normalized to wild-type
T3 construct: His (N); made in house; host or cells: E. coli BL21 (DE3)
Protocol: as §1, §2, §3, §4, §5, §6, §7, §8

[4] = target: T4, Hordeum HPPD variant F404L (Hordeum vulgare, UniProt O48604, A164G/F404L/R146V/R147D/R148G); test: as above; assay type: biochemical; conditions: normalized to wild-type
T4 construct: His (N); made in house; host or cells: E. coli BL21 (DE3)
Protocol: as §1, §2, §3, §4, §5, §6, §7, §8

[5] = target: T5, Hordeum HPPD variant L320H, P321A (Hordeum vulgare, UniProt O48604, L320H/P321A); test: as above; assay type: biochemical; conditions: normalized to wild-type
T5 construct: His (N); made in house; host or cells: E. coli BL21 (DE3)
Protocol: as §1, §2, §3, §4, §5, §6, §7, §8

[6] = target: T6, Hordeum HPPD variant F377L (Hordeum vulgare, UniProt O48604, A164G/F377L/R146V/R147D/R148G); test: as above; assay type: biochemical; conditions: normalized to wild-type
T6 construct: His (N); made in house; host or cells: E. coli BL21 (DE3)
Protocol: as §1, §2, §3, §4, §5, §6, §7, §8

[7] = target: T7, Hordeum HPPD variant R309K (Hordeum vulgare, UniProt O48604, A164G/R146V/R147D/R148G/R309K); test: as above; assay type: biochemical; conditions: normalized to wild-type
T7 construct: His (N); made in house; host or cells: E. coli BL21 (DE3)
Protocol: as §1, §2, §3, §4, §5, §6, §7, §8

[8] = target: T8, Arabidopsis HPPD variant M335H, P336G, E363Q (Arabidopsis thaliana, UniProt P93836, E363Q/M335H/P336G); test: as above; assay type: biochemical; conditions: normalized to wildtype
T8 construct: His6 (N); made in house; host or cells: E. coli BL21 (DE3)
Protocol: as §1, §2, §3, §4, §5, §6, §7, §8

[9] = target: T9, Arabidopsis HPPD variant M335H, P336A (Arabidopsis thaliana, UniProt P93836, M335H/P336A); test: as above; assay type: biochemical; conditions: normalized to wildtype
T9 construct: His6 (N); made in house; host or cells: E. coli BL21 (DE3)
Protocol: as §1, §2, §3, §4, §5, §6, §7, §8

[10] = target: T10, Hordeum HPPD variant L250M (Hordeum vulgare, UniProt O48604, A164G/L250M/R146V/R147D/R148G); test: as above; assay type: biochemical; conditions: normalized to wild-type
T10 construct: His (N); made in house; host or cells: E. coli BL21 (DE3)
Protocol: as §1, §2, §3, §4, §5, §6, §7, §8

[11] = target: T11, Hordeum HPPD variant S252T (Hordeum vulgare, UniProt O48604, A164G/R146V/R147D/R148G/S252T); test: as above; assay type: biochemical; conditions: normalized to wild-type
T11 construct: His (N); made in house; host or cells: E. coli BL21 (DE3)
Protocol: as §1, §2, §3, §4, §5, §6, §7, §8

Avena HPPD = test: HPPD activity assay, in vitro characterization; assay type: biochemical, Avena sativa; conditions: normalized to Hordeum SEQ ID NO:2
Protocol: as §1, §2, §3, §4, §5
Inhibitors are dissolved in DMSO (dimethylsulfoxide) to a concentration of 0.5 mM. From this stock solution serial five-fold dilutions are prepared in DMSO, which are used in the assay. […] IC50 values are calculated using non-linear regression. […]

T2 sequence (O48604 whole entry R146V/R147D/R148G/A164G/L320H): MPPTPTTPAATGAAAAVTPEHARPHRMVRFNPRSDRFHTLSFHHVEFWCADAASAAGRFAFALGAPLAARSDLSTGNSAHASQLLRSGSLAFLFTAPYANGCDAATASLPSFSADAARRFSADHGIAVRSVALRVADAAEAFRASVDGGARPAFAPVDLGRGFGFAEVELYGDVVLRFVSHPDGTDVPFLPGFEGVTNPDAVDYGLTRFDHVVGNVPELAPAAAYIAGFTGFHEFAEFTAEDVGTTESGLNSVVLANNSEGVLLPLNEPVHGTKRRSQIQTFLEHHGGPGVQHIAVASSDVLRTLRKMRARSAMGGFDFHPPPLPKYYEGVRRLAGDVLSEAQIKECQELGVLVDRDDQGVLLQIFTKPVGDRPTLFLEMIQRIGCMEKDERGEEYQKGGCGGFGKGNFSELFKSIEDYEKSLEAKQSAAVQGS
T11 sequence (O48604 whole entry R146V/R147D/R148G/A164G/S252T): as the sequence (O48604 whole entry R146V/R147D/R148G/A164G/L320H) above, with S252T, H320L counted along it
T7 sequence (O48604 whole entry R146V/R147D/R148G/A164G/R309K): as the sequence (O48604 whole entry R146V/R147D/R148G/A164G/L320H) above, with R309K, H320L counted along it
T9 sequence (P93836 whole entry M335H/P336A): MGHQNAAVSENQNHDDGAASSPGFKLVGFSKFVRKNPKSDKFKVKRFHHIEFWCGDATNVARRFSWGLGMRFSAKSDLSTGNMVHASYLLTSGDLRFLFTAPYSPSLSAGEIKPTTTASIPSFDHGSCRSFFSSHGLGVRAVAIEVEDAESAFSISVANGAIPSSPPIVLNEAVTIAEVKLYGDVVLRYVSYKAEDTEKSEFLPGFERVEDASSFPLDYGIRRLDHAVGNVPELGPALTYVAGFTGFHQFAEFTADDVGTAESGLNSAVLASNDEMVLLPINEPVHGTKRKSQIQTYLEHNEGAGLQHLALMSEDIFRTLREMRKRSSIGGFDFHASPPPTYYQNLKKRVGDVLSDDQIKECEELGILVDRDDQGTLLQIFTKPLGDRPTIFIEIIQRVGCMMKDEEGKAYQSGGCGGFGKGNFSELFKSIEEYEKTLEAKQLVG
T1 sequence (P93836 whole entry M335H/P336G): as the sequence (P93836 whole entry M335H/P336A) above, with A336G counted along it
T6 sequence (O48604 whole entry R146V/R147D/R148G/A164G/F377L): as the sequence (O48604 whole entry R146V/R147D/R148G/A164G/L320H) above, with H320L, F377L counted along it
T3 sequence (O48604 whole entry R146V/R147D/R148G/A164G/L320N/P321R/L353M): as the sequence (O48604 whole entry R146V/R147D/R148G/A164G/L320H) above, with H320N, P321R, L353M counted along it
T5 sequence (O48604 whole entry R146V/R147D/R148G/A164G/L320H/P321A): as the sequence (O48604 whole entry R146V/R147D/R148G/A164G/L320H) above, with P321A counted along it
T8 sequence (P93836 whole entry M335H/P336G/E363Q): as the sequence (P93836 whole entry M335H/P336A) above, with A336G, E363Q counted along it
T4 sequence (O48604 whole entry R146V/R147D/R148G/A164G/F404L): as the sequence (O48604 whole entry R146V/R147D/R148G/A164G/L320H) above, with H320L, F404L counted along it
T10 sequence (O48604 whole entry R146V/R147D/R148G/A164G/L250M): as the sequence (O48604 whole entry R146V/R147D/R148G/A164G/L320H) above, with L250M, H320L counted along it

Cn1nnnc1NC(=O)c1c(F)cc(Cl)c(S(C)(=O)=O)c1Cl [Inhibitor 1, 2,4-dichloro-6-fluoro-3-methylsulfonyl-N-(1-methyltetrazol-5-yl)benzamide]
Normalized tolerance index (TI) [1]: 0.5 | Normalized tolerance index (TI) [2]: 4 and 4.6 | Normalized tolerance index (TI) [3]: 1.9 | Normalized tolerance index (TI) [4]: 1.6 | Normalized tolerance index (TI) [5]: 3.7 | Normalized tolerance index (TI) [6]: 11.8 | Normalized tolerance index (TI) [7]: 2.6 | Normalized tolerance index (TI) [8]: 0.2 | Normalized tolerance index (TI) [9]: 0.6 | Normalized tolerance index (TI) [10]: 3.1 | Normalized tolerance index (TI) [11]: 1.8 | Normalized tolerance index (TI) (Avena HPPD): 2.8

CSc1c(Cl)cc(F)c(C(=O)Nc2ncnn2C)c1Cl [Inhibitor 3, 2,4-dichloro-6-fluoro-3-methylsulfanyl-N-(2-methyl-1,2,4-triazol-3-yl)benzamide]
Normalized tolerance index (TI) [1]: 0.1 | Normalized tolerance index (TI) [2]: 1.9 | Normalized tolerance index (TI) [3]: 0.9 | Normalized tolerance index (TI) [4]: 1.8 | Normalized tolerance index (TI) [5]: 14.3 | Normalized tolerance index (TI) [6]: 2 | Normalized tolerance index (TI) [7]: 3 | Normalized tolerance index (TI) [8]: 0.3 | Normalized tolerance index (TI) [9]: 0.2 | Normalized tolerance index (TI) [10]: 1 | Normalized tolerance index (TI) [11]: 11.1 | Normalized tolerance index (TI) (Avena HPPD): 2.8
